Measured values from PubChem BioAssay (NCI).
Values joined by “and” are separate entries in the source; they are usually repeats but may differ in a detail not shown here. Identical values can stand only once.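 Cells were grown in 96-well plates and exposed to each compound for 48 hours at five concentrations; endpoints were interpolated linearly between bracketing concentrations, or set to the highest concentration if not reached. Here, GI50 denotes the concentration required for 50% inhibition of growth. The concentration for full growth arrest is given as TGI.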

Legend:
Assay in all cases: inhibition of tumour cell growth, NCI panel, 48 h
M14 melanoma = system: M14 melanoma
HCC-2998 colon = system: HCC-2998 colon
SK-MEL-2 melanoma = system: SK-MEL-2 melanoma
HOP-92 NSCLC = system: HOP-92 NSCLC
786-0 renal = system: 786-0 renal
U251 CNS = system: U251 CNS
A549 NSCLC = system: A549 NSCLC
LOX IMVI melanoma = system: LOX IMVI melanoma
TK-10 renal = system: TK-10 renal
MCF7 breast = system: MCF7 breast

Row | SMILES | GI50 (M14 melanoma) | TGI (M14 melanoma) | GI50 (HCC-2998 colon) | TGI (HCC-2998 colon) | GI50 (SK-MEL-2 melanoma) | TGI (SK-MEL-2 melanoma) | GI50 (HOP-92 NSCLC) | TGI (HOP-92 NSCLC) | GI50 (786-0 renal) | TGI (786-0 renal) | GI50 (U251 CNS) | TGI (U251 CNS) | GI50 (A549 NSCLC) | TGI (A549 NSCLC) | GI50 (LOX IMVI melanoma) | TGI (LOX IMVI melanoma) | GI50 (TK-10 renal) | TGI (TK-10 renal) | GI50 (MCF7 breast) | TGI (MCF7 breast)
1 | Oc1ccc2ccccc2c1C1NN=C(c2ccccc2)S1 (configuration not stated) | 0.279 µM | 0.819 µM | 0.353 µM | 16.6 µM | 0.41 µM | 14.9 µM | 0.244 µM | 12.2 µM | 0.424 µM | > 34.6 µM | 0.461 µM | 48.5 µM | 0.587 µM | 84.1 µM | 0.327 µM | 13 µM | 0.559 µM | 38.2 µM | 0.426 µM | 21.2 µM
2 | c1cncc(-c2nc3ccccc3s2)c1 | > 100 µM | > 100 µM | > 100 µM | > 100 µM | > 100 µM | > 100 µM | 18 µM | > 100 µM | > 100 µM | > 100 µM | 97 µM | > 100 µM | > 100 µM | > 100 µM | > 100 µM | > 100 µM | > 100 µM | > 100 µM | > 100 µM | > 100 µM
3 | CN[C@@H]1C[C@H]2O[C@@](C)([C@@H]1OC)n1c3ccccc3c3c4c(c5c6ccccc6n2c5c31)C(=O)N[C@H]4O |  | > 3.69 µM | 0.0722 µM | 0.974 µM | 0.0358 µM | 0.853 µM | 0.00753 µM | 0.0613 µM |  | 0.203 µM | 0.0676 µM | 0.651 µM | 0.0465 µM | 3 µM |  | 1.09 µM | 0.0096 µM | 0.0541 µM | 0.0283 µM | 1.51 µM
4 | O=CC(Br)C(Br)c1ccccc1 (configuration not stated) | 2 µM | 4.88 µM | 15.1 µM | 29.4 µM | 2.85 µM | 9.11 µM | 1.52 µM | 2.89 µM | 2.5 µM | 6.46 µM | 7.4 µM | 20.4 µM | 21.1 µM | 49.9 µM | 0.665 µM | 1.83 µM | 1.74 µM | 3.56 µM | 0.478 µM | 2.23 µM
5 | N#C/C(=C\Nc1ccccn1)C(=O)c1ccco1 |  | > 100 µM |  | > 100 µM |  | > 100 µM |  | > 100 µM |  | > 100 µM |  | > 100 µM |  | > 100 µM |  | > 100 µM |  | > 100 µM |  | > 100 µM
6 | CN1CCC(C(=O)Nc2n[nH]c3nc(-c4ccc(O)cc4)c(Br)cc23)CC1 | 3.47 µM and 4.68 µM | 8.42 µM and 9.62 µM | 1.08 µM and 1.32 µM | 5.72 µM and 8.32 µM | 0.692 µM and 1.66 µM | 2.32 µM and 5.75 µM | 0.97 µM | 5.04 µM | 3.58 µM and 3.13 µM | 21.4 µM and 24.8 µM | 0.661 µM and 0.848 µM | > 25 µM | 5.72 µM and 7.38 µM | > 25 µM | 0.574 µM and 0.661 µM | 5.45 µM and > 12.2 µM | 3.16 µM and 6.15 µM | 15.3 µM and 17.1 µM | 0.557 µM and 0.724 µM | > 22 µM
7 | O=C(NCCCCCCNC(=O)n1cc(F)c(=O)[nH]c1=O)NCCCOCCOCCOCCOCCOCCOCCOCCOCCOCCOCCOCCOCCOCCOCCOCCOCCOCCOCCOCCOCCOCCCNC(=O)C(O)C(O)C(OC1OC(CO)C(O)C(O)C1O)C(O)CO (configuration not stated) |  | > 100 µM |  | > 87.2 µM |  | > 100 µM |  | > 100 µM |  | > 100 µM |  | > 100 µM |  | > 100 µM |  | > 100 µM |  | > 100 µM |  | > 46.8 µM
8 | CC(=O)OC1CC[C@@]2(C)C(CC[C@]3(C)C2CC=C2[C@@H]4CC(C)(C)CCC4(C)CCC23C)[C@@]1(C)C(=O)O (some centres not stated) |  | 46.5 µM |  | 35.8 µM |  | 38.6 µM |  | 49.9 µM |  | 45.9 µM |  | 32 µM |  | 33.9 µM |  | 50.1 µM |  | 51.8 µM |  | 40.1 µM
